{"source": "patent US11879012B2", "about": "“Method of modulating cell proliferation” (METRO NORTH HOSPITAL AND HEALTH SERVICE, priority 2018, dated 2024)", "test_system": "corneal-limbal epithelial cells", "test": "MTT conversion / proliferation of primary corneal-limbal epithelial cells", "assay_type": "cell-based, human", "conditions": "40 μM Y27632 alone; FIG. 5D", "text": "Cultures of non-transformed human corneal epithelial cells were established from either enzymatically-dissociated sample of corneal-scleral tissue or from pieces of intact corneal limbus seeded into culture dishes (i.e., explant method). In either case, corneal tissue from cadaveric donors was used. Each tissue sample was acquired with consent and ethics approval our HREC Approval No. 0800000807) in the form of either surgical cut-offs or intact corneas that had been rejected by the eye bank (e.g., poor endothelial cell density).\nFor dissociated cultures, washed tissue samples were cut into quarters before being incubated for 1 hour at 37° C. in 0.25% (w/v) Dispase solution (Life Technologies). Epithelial tissue was subsequently harvested from the limbus and peripheral cornea by scraping with a pipette tip, then dissociated by digestion in 0.05% Trypsin/0.02% EDTA (Sigma) for 5 minutes at 37° C. The resulting cell suspension was washed and resuspended in complete culture medium. […]\nTo initiate cultures from whole tissue, each well of a 6-well culture plate (approximately 6×10 cm^2) was initially filled with 2 mL, of 100% FBS and incubated for at least 30 minutes at 37° C. […] Over subsequent days, each p0 culture was routinely monitored for evidence of epithelial outgrowth until a confluent sheet measuring approximately 2-3 cm^2 had been achieved (approximately 1-2 weeks). […]"}
{"compound": "C[C@@H](N)[C@H]1CC[C@H](C(=O)Nc2ccncc2)CC1", "note": "[Y27632]", "values": [{"measurement": "MTT conversion (cell proliferation)", "result": "dose-dependent increase in MTT conversion"}]}
